Experimental data published in patent US7285572B2, “CaSR antagonist” (Japan Tobacco Inc., priority 2003, dated 2007).

Tests used:
[1] = molecular target: T1, human calcium receptor (Homo sapiens, UniProt P41180); test: Evaluation of antagonistic action on calcium receptor using reporter gene (luciferase); assay type: cell-based; conditions: rat adrenal derived cells with luciferase and human calcium receptor cDNA, 5 mM calcium chloride, 4 hrs; read-out: IC50 (concentration showing 50% inhibitory rate of luciferase activity)
T1 construct: expressed in transfected cells; host or cells: cell strain derived from rat adrenal, co-transfected with luciferase cDNA
T1 sequence (P41180 20-1078): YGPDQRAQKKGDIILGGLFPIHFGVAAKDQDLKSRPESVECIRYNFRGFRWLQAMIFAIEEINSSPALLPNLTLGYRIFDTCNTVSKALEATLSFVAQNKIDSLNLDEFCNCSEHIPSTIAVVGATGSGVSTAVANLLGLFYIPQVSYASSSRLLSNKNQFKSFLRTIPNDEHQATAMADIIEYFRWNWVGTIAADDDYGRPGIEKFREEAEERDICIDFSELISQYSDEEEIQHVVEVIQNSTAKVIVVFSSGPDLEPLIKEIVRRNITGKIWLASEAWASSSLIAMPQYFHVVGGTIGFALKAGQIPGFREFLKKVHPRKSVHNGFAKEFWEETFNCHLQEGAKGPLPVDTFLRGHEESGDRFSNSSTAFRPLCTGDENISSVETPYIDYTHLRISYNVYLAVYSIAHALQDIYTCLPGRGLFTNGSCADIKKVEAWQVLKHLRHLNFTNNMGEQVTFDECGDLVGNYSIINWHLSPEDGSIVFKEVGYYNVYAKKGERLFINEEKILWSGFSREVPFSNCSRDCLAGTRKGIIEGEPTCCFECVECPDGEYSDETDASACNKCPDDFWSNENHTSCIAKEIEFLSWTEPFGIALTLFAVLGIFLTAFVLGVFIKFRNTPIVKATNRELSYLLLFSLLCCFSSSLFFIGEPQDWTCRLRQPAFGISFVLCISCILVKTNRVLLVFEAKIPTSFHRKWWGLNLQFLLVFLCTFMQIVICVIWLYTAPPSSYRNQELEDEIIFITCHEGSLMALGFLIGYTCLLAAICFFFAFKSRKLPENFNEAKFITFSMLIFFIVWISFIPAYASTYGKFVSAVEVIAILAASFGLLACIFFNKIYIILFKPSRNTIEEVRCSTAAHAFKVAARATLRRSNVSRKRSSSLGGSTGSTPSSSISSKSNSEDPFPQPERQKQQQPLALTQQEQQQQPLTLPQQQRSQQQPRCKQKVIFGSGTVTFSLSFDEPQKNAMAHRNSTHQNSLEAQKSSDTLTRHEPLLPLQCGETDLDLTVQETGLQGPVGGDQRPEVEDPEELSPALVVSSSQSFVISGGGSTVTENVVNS
Description: Evaluation of Antagonistic Action on Calcium Receptor Using Reporter Gene
Luciferase cDNA and human calcium receptor cDNA were introduced into a cell strain derived from rat adrenal to transform the cells, and the transformed cells were cultured in a medium (80 μl, F12 medium containing 0.5% dialyzed horse serum and 0.25% dialyzed bovine fetal serum). A dimethyl sulfoxide solution containing a test compound at 0.1-10000 μM was diluted 100-fold with the medium and added to the test compound group at 10 μl per well (final concentration of dimethyl sulfoxide is 0.1%). In the same manner as in test compound group, dimethyl sulfoxide diluted 100-fold with medium was added to a control group and a blank group. Then, 50 mM calcium chloride-containing medium was added to every well except the blank group at 10 μl per well (final concentration is 5 mM). A medium alone was added to the blank group. After culture for 4 hrs, luciferase substrate was added and the luciferase activity was measured with a photoluminometer. The inhibitory rate (%) was calculated from the obtained measured values according to the following formula.
Based on the results, the concentration (IC50) showing 50% inhibitory rate was determined.

[2] = tested on: PTH secretion; test: PTH secretagogue action, oral administration to fasted male SD rats, serum PTH by ELISA; assay type: in vivo, rat; conditions: 3 mg/kg oral, test compound administration group
Description: The test compound was orally administered to 5 to 9-week-old male SD rats (Charles River Japan, Inc.) fasted for 20 hr, using a solvent (0.5% aqueous methyl cellulose solution) at a dose of 3 mg/5 ml/kg or 30 mg/5 ml/kg. A solvent alone was orally administered to the control group at a dose of 5 ml/kg. The blood was drawn from the tail vein 15 min, 30 min, 60 min and 120 min after the administration of the test compound, and serum was obtained. The serum PTH concentration was measured using rat PTH ELISA kit (Amersham Biosciences).

[3] = molecular target: T2, CYP2D6 (Homo sapiens, UniProt P10635); test: Metabolic enzyme CYP2D6 inhibitory activity (BD Bioscience kit); assay type: in vitro ADME; conditions: enzyme activity free of test compound as 100%; read-out: CYP2D6 IC50 (concentration showing 50% inhibition)
T2 construct: purchased BD Bioscience
Description: Metabolic Enzyme CYP2D6 Inhibitory Activity
Using a metabolic enzyme CYP2D6 inhibition measurement kit (BD Bioscience) and following the manual of the kit, the inhibitory activity of the test compound was measured. With the enzyme activity free of the test compound as 100%, the concentration (IC50) showing 50% inhibition was determined. The results are shown in Table 8, wherein “>10” means over 10 μM.

[4] = tested on: PTH release; conditions: cited from earlier work
[5] = tested on: osteoblast and osteoclast; conditions: in vitro; cited from earlier work
[6] = tested on: PTH secretion; test: Reproductive test of NPS-2143 of the reference (PTH secretion); assay type: in vivo

T2 sequence (P10635 whole entry): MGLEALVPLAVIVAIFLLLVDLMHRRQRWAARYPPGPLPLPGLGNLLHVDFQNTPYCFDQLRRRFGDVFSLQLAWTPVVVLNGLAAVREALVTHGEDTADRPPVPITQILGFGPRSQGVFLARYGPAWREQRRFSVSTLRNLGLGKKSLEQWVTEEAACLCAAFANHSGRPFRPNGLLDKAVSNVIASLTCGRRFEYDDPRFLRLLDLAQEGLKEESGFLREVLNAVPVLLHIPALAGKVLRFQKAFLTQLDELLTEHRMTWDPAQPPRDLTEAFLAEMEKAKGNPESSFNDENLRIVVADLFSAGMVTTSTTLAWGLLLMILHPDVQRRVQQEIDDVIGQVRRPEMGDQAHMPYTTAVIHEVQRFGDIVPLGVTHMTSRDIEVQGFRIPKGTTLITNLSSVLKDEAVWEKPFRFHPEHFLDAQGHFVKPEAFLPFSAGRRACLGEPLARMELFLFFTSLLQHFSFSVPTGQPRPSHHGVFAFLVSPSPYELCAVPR

| SMILES | IC50 [1] | serum PTH concentration 15 min later [2] | serum PTH concentration 30 min later [2] | IC50 [3] | blood concentration of NPS-2143 8 hours after the administration ([4]; 100 μmol/kg, OVX rat) | blood concentration of NPS-2143 24 hours later ([4]; 100 μmol/kg, OVX rat) | blood PTH concentration 4 hours later ([4]; NPS-2143 100 μmol/kg, OVX rat) | blood PTH concentration in 30 minutes ([4]; NPS-2143 100 μmol/kg, OVX rat) | bone decrease or bone increase ([4]; oral, OVX rats) | release of PTH ([4]; oral, OVX rats) | direct effect on osteoblast and osteoclast [5] | PTH secretion promoting action (duration) [6] |
| --- | --- | --- | --- | --- | --- | --- | --- | --- | --- | --- | --- | --- |
| C[C@@H](OC[C@H](O)CNC(C)(C)Cc1ccc2ccccc2c1)c1ccccc1CCC(=O)O [Example 1, 3-[2-[(1R)-1-[(2R)-2-hydroxy-3-[[2-methyl-1-(naphthalen-2-yl)propan-2-yl]amino]propoxy]ethyl]phenyl]propionic acid] | 0.025 µM | 24.86 ± 3.59 pg/mL | 18.58 ± 2.15 pg/mL | 9.5 µM |  |  |  |  |  |  |  |  |
| CC(OC[C@H](O)CNC(C)(C)Cc1ccc2ccccc2c1)c1ccccc1-c1ccc(C(=O)NS(C)(=O)=O)cc1 (some centres unmarked) [Example 18] | 0.022 µM |  |  | 8 µM |  |  |  |  |  |  |  |  |
| CC(C)(Cc1ccc2ccccc2c1)NC[C@@H](O)COc1cccc(Cl)c1C#N [NPS-2143] |  |  |  |  | not less than 100 ng/ml | ≤ 10 ng/mL | about 140 pg/ml | about 115 pg/ml | free of bone decrease or bone increase | significantly promotes release of PTH | did not show any direct effect | sustained PTH secretion promoting action |
